Measured values: patent US8183236B2, “Compounds with HIV-1 integrase inhibitory activity and use thereof as anti-HIV/AIDS therapeutics” (University of Southern California, priority 2007, dated 2012)

How the values were obtained:
[1] = biological target: T1, HIV-1 integrase (wild-type IN) (Human immunodeficiency virus type 1 group M subtype B, UniProt P12497); assay: HIV-1 integrase 3′-processing assay (32P-labeled 21-mer, gel); format: biochemical; details: wild-type IN 200 nM, 7.5 mM MnCl2; read-out: Inhibition of IN Catalytic Activities IC50 (μM) 3′-processing
How it was run: (§1)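 Wild-type IN at 200 nM preincubated with inhibitor 30 min at 30 °C in MnCl2 (7.5 mM), pH 7.2 MOPS buffer with 10% DMSO, then 20 nM 5′-32P-labeled 21-mer duplex added for 1 h. 19-mer and strand-transfer products resolved on denaturing 20% gels by phosphorimaging; IC50 from log concentration versus % inhibition.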

[2] = biological target: T1, HIV-1 integrase (wild-type IN); assay: HIV-1 integrase strand transfer assay (32P-labeled 21-mer, gel); format: biochemical; details: wild-type IN 200 nM, 7.5 mM MnCl2; read-out: Inhibition of IN Catalytic Activities IC50 (μM) Strand Transfer
How it was run: as §1

## COc1cc(/C=C2/SC(=S)N(CC(=O)O)C2=O)ccc1OC(=O)c1ccc(F)cc1 [OT9]
[1]
  IC50: > 100 µM
[2]
  IC50: 97 ± 5 µM
